Data as given in patent US20260116868A1 (Arcus Biosciences, Inc., priority 2023, published 2026).

Molecular target: T1, Cbl-b (Homo sapiens, UniProt Q13191)
T1 construct: biotin (biotinylated protein)
Assay: Cbl-b probe displacement HTRF binding assay
Conditions: 0.4 nM Cbl-b, 150 nM BODIPY probe
How it was run: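 Binding IC50 from four-parameter fit of HTRF signal loss, normalised to DMSO (0%) and no-protein (100%) wells. Biotinylated Cbl-b 0.4 nM was preincubated 60 min with compound (20-point 1:2 dilution) before 15 min with 150 nM BODIPY probe; Tb-streptavidin detection.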

T1 sequence (Q13191 whole entry, species assumed): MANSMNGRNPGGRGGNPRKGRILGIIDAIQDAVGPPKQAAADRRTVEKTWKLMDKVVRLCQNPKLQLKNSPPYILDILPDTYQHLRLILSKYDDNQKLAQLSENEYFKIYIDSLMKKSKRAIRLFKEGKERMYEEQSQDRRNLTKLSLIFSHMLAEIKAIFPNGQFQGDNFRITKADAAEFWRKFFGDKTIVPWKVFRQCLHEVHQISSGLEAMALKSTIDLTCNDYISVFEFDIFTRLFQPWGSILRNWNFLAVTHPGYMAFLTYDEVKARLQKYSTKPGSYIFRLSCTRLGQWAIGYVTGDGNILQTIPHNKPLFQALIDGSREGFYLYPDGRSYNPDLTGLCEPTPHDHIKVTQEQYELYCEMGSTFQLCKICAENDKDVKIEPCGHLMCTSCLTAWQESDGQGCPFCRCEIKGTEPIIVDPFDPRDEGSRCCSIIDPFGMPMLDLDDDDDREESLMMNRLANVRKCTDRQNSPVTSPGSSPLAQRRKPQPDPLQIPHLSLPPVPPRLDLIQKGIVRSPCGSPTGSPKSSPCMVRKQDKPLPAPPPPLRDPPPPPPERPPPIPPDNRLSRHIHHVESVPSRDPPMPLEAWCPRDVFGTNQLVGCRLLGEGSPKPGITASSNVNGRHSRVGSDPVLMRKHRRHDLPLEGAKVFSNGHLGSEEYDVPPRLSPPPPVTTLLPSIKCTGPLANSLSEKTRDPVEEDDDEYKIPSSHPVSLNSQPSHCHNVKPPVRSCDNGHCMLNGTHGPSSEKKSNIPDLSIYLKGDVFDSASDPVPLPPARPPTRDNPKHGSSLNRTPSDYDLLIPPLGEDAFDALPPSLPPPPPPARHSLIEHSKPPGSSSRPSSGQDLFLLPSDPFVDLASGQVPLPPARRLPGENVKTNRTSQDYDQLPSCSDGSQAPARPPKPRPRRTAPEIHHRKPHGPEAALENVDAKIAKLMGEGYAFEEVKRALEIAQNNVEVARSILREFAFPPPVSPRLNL

IC50, < 100 nM:
CO[C@@H](C)CNCc1cc(C(=O)Nc2cc(-c3ccc(Cl)cc3C(=O)N3CC(C#N)C3)cc(C3CC3)n2)c(=O)n(C2CC2)c1 [Example 155, N-(4-{4-Chloro-2-[(3-cyano-1-azetidinyl)carbonyl]phenyl}-6-cyclopropyl-2-pyridyl)-1-cyclopropyl-5-{[(S)-2-methoxypropylamino]methyl}-2-oxo-1,2-dihydronicotinamide]
CO[C@@H](C)CNCc1cc(C(=O)Nc2cc(-c3ccc(Cl)cc3C(=O)N3CCC3)cc(C3CC3)n2)c(=O)n(C2CC2)c1 [Example 156, N-(4-{2-[(1-Azetidinyl)carbonyl]-4-chlorophenyl}-6-cyclopropyl-2-pyridyl)-1-cyclopropyl-5-{[(S)-2-methoxypropylamino]methyl}-2-oxo-1,2-dihydronicotinamide]
CO[C@@H](C)CNCc1cc(C(=O)Nc2cc(-c3ccc(Cl)cc3C(=O)N3CC(C(F)(F)F)C3)cc(C3CC3)n2)c(=O)n(C2CC2)c1 [Example 157, N-[4-(4-Chloro-2-{[3-(trifluoromethyl)-1-azetidinyl]carbonyl}phenyl)-6-cyclopropyl-2-pyridyl]-1-cyclopropyl-5-{[(S)-2-methoxypropylamino]methyl}-2-oxo-1,2-dihydronicotinamide]
CO[C@@H](C)CNCc1cc(C(=O)Nc2cc(-c3ccc(Cl)cc3C(=O)N3CC(C)(F)C3)cc(C3CC3)n2)c(=O)n(C2CC2)c1 [Example 158, N-(4-{4-Chloro-2-[(3-fluoro-3-methyl-1-azetidinyl)carbonyl]phenyl}-6-cyclopropyl-2-pyridyl)-1-cyclopropyl-5-{[(S)-2-methoxypropylamino]methyl}-2-oxo-1,2-dihydronicotinamide]
CO[C@@H](C)CNCc1cc(C(=O)Nc2cc(-c3ccc(Cl)cc3C(=O)N3CC(C)C3)cc(C3CC3)n2)c(=O)n(C2CC2)c1 [Example 159, N-(4-{4-Chloro-2-[(3-methyl-1-azetidinyl)carbonyl]phenyl}-6-cyclopropyl-2-pyridyl)-1-cyclopropyl-5-{[(S)-2-methoxypropylamino]methyl}-2-oxo-1,2-dihydronicotinamide]
CO[C@@H](C)CNCc1cc(C(=O)Nc2cc(-c3ccc(Cl)cc3C(=O)N3CC4(COC4)C3)cc(C3CC3)n2)c(=O)n(C2CC2)c1 [Example 160, N-(4-{4-Chloro-2-[(2-oxa-6-aza-6-spiro[3.3]heptyl)carbonyl]phenyl}-6-cyclopropyl-2-pyridyl)-1-cyclopropyl-5-{[(S)-2-methoxypropylamino]methyl}-2-oxo-1,2-dihydronicotinamide]
CO[C@@H](C)CNCc1cc(C(=O)Nc2cc(-c3ccc(Cl)cc3C(=O)N(C)C)cc(C3CC3)n2)c(=O)n(C2CC2)c1 [Example 161, N-{4-[4-Chloro-2-(N,N-dimethylcarbamoyl)phenyl]-6-cyclopropyl-2-pyridyl}-1-cyclopropyl-5-{[(S)-2-methoxypropylamino]methyl}-2-oxo-1,2-dihydronicotinamide]
CO[C@@H](C)CNCc1cc(C(=O)Nc2cc(-c3ccc(Cl)cc3C(=O)N3CC(F)(F)C3)cc(OCC(F)F)n2)c(=O)n(C2CC2)c1 [Example 162]
CO[C@@H](C)CNCc1cc(C(=O)Nc2cc(-c3ccc(Cl)cc3C(=O)N3CC(F)(F)C3)cc(OCC(F)(F)F)n2)c(=O)n(C2CC2)c1 [Example 163]
O=C(Nc1cc(-c2ccc(OC(F)F)cc2C(=O)N2CC(F)(F)C2)cc(OCC(F)F)n1)c1cc(CNC[C@@H]2CCCO2)cn(C2CC2)c1=O [Example 164]
O=C(Nc1cc(-c2ccc(OC(F)F)cc2C(=O)N2CC(F)(F)C2)cc(OCC(F)F)n1)c1cc(CNC[C@@H]2COCCO2)cn(C2CC2)c1=O [Example 165]
Cc1ccc(-c2cc(NC(=O)c3cc(CNC[C@@H]4CCCO4)cn(C4CC4)c3=O)nc(OCC(F)F)c2)c(C(=O)N2CC(F)(F)C2)c1 [Example 166]
C[C@H](NCc1cc(C(=O)Nc2cc(-c3ccc(C#N)cc3C(=O)N3CC(F)(F)C3)cc(C3CC3)n2)c(=O)n(C)c1)C1CCC1 [Example 167]
CCn1cc(CNCC(C)C)cc(C(=O)Nc2cc(-c3ccc(C#N)cc3C(=O)N3CC(F)(F)C3)cc(C3CC3)n2)c1=O [Example 168]
CO[C@@H](C)CNCc1cc(C(=O)Nc2cc(-c3ccc(Cl)cc3C(=O)N3CC(F)(F)C3)cc(NC(C)C)n2)c(=O)n(C)c1 [Example 169]
CCn1cc(CNC[C@H](C)OC)cc(C(=O)Nc2cc(-c3ccc(C#N)cc3C(=O)N3CC(F)(F)C3)cc(C3CC3)n2)c1=O [Example 170]
COC[C@H](C)NCc1cc(C(=O)Nc2cc(-c3ccc(C#N)cc3C(=O)N3CC(F)(F)C3)cc(C3CC3)n2)c(=O)n(C)c1 [Example 171]
CCNc1cc(-c2ccc(Cl)cc2C(=O)N2CC(F)(F)C2)cc(NC(=O)c2cc(CNC[C@H](C)OC)cn(C)c2=O)n1 [Example 172]
Cn1cc(CNC[C@@H]2CCCO2)cc(C(=O)Nc2cc(-c3ccc(C#N)cc3C(=O)N3CC(F)(F)C3)cc(C3CC3)n2)c1=O [Example 173]
CO[C@@H](C)CNCc1cc(C(=O)Nc2cc(-c3ccc(C#N)cc3C(=O)N3CC(F)(F)C3)cc(C3CC3)n2)c(=O)n(CC(F)(F)F)c1 [Example 174]
CC(C)CNCc1cc(C(=O)Nc2cc(-c3ccc(C#N)cc3C(=O)N3CC(F)(F)C3)cc(C3CC3)n2)c(=O)n(C)c1 [Example 175]
CO[C@@H](C)CNCc1cc(C(=O)Nc2cc(-c3ccc(OC(F)F)cc3C(=O)N3CC(F)(F)C3)cc(C3CC3)n2)c(=O)n(C)c1 [Example 176]
CO[C@@H](C)CNCc1cc(C(=O)Nc2cc(-c3c(F)cc(Cl)cc3C(=O)N3CC(F)(F)C3)cc(C3CC3)n2)c(=O)n(C)c1 [Example 177]
CO[C@@H](C)CNCc1cc(C(=O)Nc2cc(-c3ccc(C#N)cc3C(=O)N3CC(F)(F)C3)cc(C3CC3)n2)c(=O)n(C)c1 [Example 178]
N#Cc1ccc(-c2cc(NC(=O)c3cc(CNC[C@@H]4CCCO4)cn(CC(F)(F)F)c3=O)nc(C3CC3)c2)c(C(=O)N2CC(F)(F)C2)c1 [Example 179]
CCOc1cc(-c2ccc(Cl)cc2C(=O)N2CC(F)(F)C2)cc(NC(=O)c2cc(CNC[C@H](C)OC)cn(C)c2=O)n1 [Example 180]
CCOc1cc(-c2ccc(C#N)cc2C(=O)N2CC(F)(F)C2)cc(NC(=O)c2cc(CNC[C@H](C)OC)cn(C)c2=O)n1 [Example 181]
CCNc1cc(-c2ccc(Cl)cc2C(=O)N2CC(F)(F)C2)cc(NC(=O)c2cc(CNC[C@@H]3CCCO3)cn(C)c2=O)n1 [Example 182]
CCOc1cc(-c2ccc(C#N)cc2C(=O)N2CC(F)(F)C2)cc(NC(=O)c2cc(CNC[C@@H]3CCCO3)cn(C)c2=O)n1 [Example 183]
CCNc1cc(-c2ccc(Cl)cc2C(=O)N2CC(F)(F)C2)cc(NC(=O)c2cc(CNCC(C)C)cn(C)c2=O)n1 [Example 184]
Cn1cc(CNC[C@@H]2CCCO2)cc(C(=O)Nc2cc(-c3ccc(OC(F)F)cc3C(=O)N3CC(F)(F)C3)cc(C3CC3)n2)c1=O [Example 185]
CCn1cc(CNC[C@@H]2CCCO2)cc(C(=O)Nc2cc(-c3ccc(C#N)cc3C(=O)N3CC(F)(F)C3)cc(C3CC3)n2)c1=O [Example 186]
COCCNCc1cc(C(=O)Nc2cc(-c3ccc(C#N)cc3C(=O)N3CC(F)(F)C3)cc(C3CC3)n2)c(=O)n(C)c1 [Example 187]
C[C@H](NCc1cc(C(=O)Nc2cc(-c3ccc(C#N)cc3C(=O)N3CC(F)(F)C3)cc(C3CC3)n2)c(=O)n(CC(F)(F)F)c1)C1CC1 [Example 188]
CCn1cc(CNCC2CC2)cc(C(=O)Nc2cc(-c3ccc(C#N)cc3C(=O)N3CC(F)(F)C3)cc(C3CC3)n2)c1=O [Example 189]
Cn1cc(CNC[C@@H]2CCCCO2)cc(C(=O)Nc2cc(-c3ccc(C#N)cc3C(=O)N3CC(F)(F)C3)cc(C3CC3)n2)c1=O [Example 190]
CO[C@@H](C)CNCc1cc(C(=O)Nc2cc(-c3ccc(C#N)cc3C(=O)N3CC(F)(F)C3)cc(N(C)C)n2)c(=O)n(C2CC2)c1 [Example 191]
Cn1cc(CNCC2CC2)cc(C(=O)Nc2cc(-c3ccc(C#N)cc3C(=O)N3CC(F)(F)C3)cc(C3CC3)n2)c1=O [Example 192]
CC(C)CNCc1cc(C(=O)Nc2cc(-c3ccc(C#N)cc3C(=O)N3CC(F)(F)C3)cc(N(C)C)n2)c(=O)n(C2CC2)c1 [Example 193]
COCCNCc1cc(C(=O)Nc2cc(-c3ccc(C#N)cc3C(=O)N3CC(F)(F)C3)cc(C3CC3)n2)c(=O)n(CC(F)(F)F)c1 [Example 194]
CO[C@@H](C)CNCc1cc(C(=O)Nc2cc(-c3ccc(C#N)cc3C(=O)N3CC(F)(F)C3)cc(OC3CC3)n2)c(=O)n(C2CC2)c1 [Example 195]
CCOc1cc(-c2ccc(C#N)cc2C(=O)N2CC(F)(F)C2)cc(NC(=O)c2cc(CN[C@@H](C)C3CCC3)cn(C3CC3)c2=O)n1 [Example 196]
CO[C@@H](C)CNCc1cc(C(=O)Nc2cc(-c3ccc(OC(F)F)cc3C(=O)N3CC(F)(F)C3)cc(OC(C)C)n2)c(=O)n(C2CC2)c1 [Example 197]
CO[C@@H](C)CNCc1cc(C(=O)Nc2cc(-c3c(F)cc(Cl)cc3C(=O)N3CC(F)(F)C3)cc(NC(C)C)n2)c(=O)n(C2CC2)c1 [Example 198]
CCOc1cc(-c2c(F)cc(Cl)cc2C(=O)N2CC(F)(F)C2)cc(NC(=O)c2cc(CNC[C@H](C)OC)cn(C3CC3)c2=O)n1 [Example 199]
CC(C)Nc1cc(-c2c(F)cc(Cl)cc2C(=O)N2CC(F)(F)C2)cc(NC(=O)c2cc(CN[C@@H](C)C3CCC3)cn(C3CC3)c2=O)n1 [Example 200]
CC(C)CNCc1cc(C(=O)Nc2cc(-c3c(F)cc(Cl)cc3C(=O)N3CC(F)(F)C3)cc(NC(C)C)n2)c(=O)n(C2CC2)c1 [Example 201]
